# According to paper PMC11667226 (Theranostics, 2025):
# Non-standard residues stand in square brackets, D forms with d. Residues, ends and D or L forms follow the SMILES beside them. *: point of attachment. X1 = CC1(C)C(=CC=CC=CC=CC2=[N+](CCCCCC(=O)*)c3ccc4ccccc4c3C2(C)C)N(CCCCS(=O)(=O)[O-])c2ccc3ccccc3c21; Cha = N[C@@H](CC1CCCCC1)C(=O)O
# Test system: oral and oropharyngeal squamous cell carcinoma (OSCC, OPSCC)
# Test: Sensitivity of FG001 optical imaging for tumor detection, verified by histology
# Format: in vivo, human
# Conditions: 16 patients with OSCC/OPSCC; FG001 36, 16 or 4 mg i.v. the evening prior to surgery; 11 optically guided biopsies and 5 cross-section samples
# Procedure: For 11 out of 16 patients, a single biopsy was sampled from the resected tumor specimen ex-vivo on the back-table from a region with a bright fluorescence presented by the imaging system. For the remaining 5 patients, the tumors were cross-sectioned for detailed optical imaging and histopathological processing (see next section). The back-table imaging was performed with the same settings (Image profile: NIR_highcontrast or NIR_contrast, excitation laser: 805 nm) and with no other light sources, always with a perpendicular angle to the table, and a camera-to-tumor distance of 20 centimeters. The biopsies were taken with biopsy-punch-forceps, hereafter formalin (4%) fixed, paraffin-embedded (i.e. FFPE), and evaluated with histopathological assessment by a pathologist for the presence of cancer tissue - concluding on cancer-positive or negative.
# For 5 out of the 16 patients, the resected tumor specimens were cut in half, sliced at the OR, and imaged with the Elevision® imaging system. The specimens underwent routine pathologic processing at the Department of Pathology. […] To evaluate the overlap between fluorescence signal from FG001, uPAR-expression, and tumor tissue, the cryosections were first fluorescently scanned with an Amersham Typhoon^TM scanner from Cytiva and, thereafter, stained using immunohistochemistry for uPAR and Cytokeratin (CK), and hematoxylin and eosin (H&E) stained. […]
smiles,measurement,value
"CC(C)C[C@H](NC(=O)[C@H](Cc1ccc(O)cc1)NC(=O)[C@@H](CCCNC(=N)N)NC(=O)[C@@H](CO)NC(=O)[C@H](Cc1ccccc1)NC(=O)[C@H](CC1CCCCC1)NC(=O)[C@H](CC(=O)O)NC(=O)[C@H](CCC(=O)O)NC(=O)[C@H](CCC(=O)O)NC(=O)CCCCC[N+]1=C(C=CC=CC=CC=C2N(CCCCS(=O)(=O)[O-])c3ccc4ccccc4c3C2(C)C)C(C)(C)c2c1ccc1ccccc21)C(=O)N[C@@H](Cc1c[nH]c2ccccc12)C(=O)N[C@@H](CO)C(=O)O [FG001, ICG-Glu-Glu-AE105] (X1-EED[Cha]F[dS][dR]YLWS-OH; N-terminus and C-terminus assumed)",Sensitivity for tumor detection verified by histology,100%
